This note sets out measurements from EP0840781B1, “METHODS AND DEVICES FOR THE REMOVAL OF PSORALENS FROM BLOOD PRODUCTS” (Cerus Corporation, priority 1995, dated 1996).

For series [1], the system named is Chinese hamster ovary (CHO) cells. Nature of the series: In vitro genotoxicity screen in CHO cells (toxic dose). The series is classed as cell-based. The conditions noted are these: approximately 3 hours exposure in the dark, dilutions 1-1000 µg/ml. An excerpt: The positive control was methylmethane sulfonate.
Coverslips were mounted with Permount.

The subject of series [2] is GMP-140 expression on platelets. The experiment in a line: GMP-140 (p-selectin) expression on platelets, CD62 antibody, flow cytometry. Type of series: cell-based, human. The conditions noted are these: T = test unit (150 µM S-59, 3 Joules/cm^2 UVA, RD 8 hours on day 1). Here is the method:
To measure the effects of the present compounds and methods of decontamination on platelet function using these four indicators, four samples were prepared for each compound tested, two control samples and two containing compound. […] These were each transferred under sterile conditions to 50 ml centrifuge tubes, then aliquots of each unit were transferred into a second set of 50 ml sterile centrifuge tubes. […] The samples were pipetted gently up and down to mix. […] Samples were treated in one of two different sized bags, having either 3 ml or 8 ml capacity. […] For each compound tested, two control samples without compound were prepared by again removing aliquots of platelet concentrate (17 ml if using an 8 ml bag, 4 ml if using a 3 ml bag) from the same one of the first set of 50 ml centrifuge tubes from which the compound sample was drawn, and dividing into Medibags, as before. […]
Background: A flow cytometer gives signals particle by particle.

Series [3] concerns platelets. Nature of the series: Platelet shape change. The series is classed as cell-based, human. As to conditions: T = test unit (150 µM S-59, 3 Joules/cm^2 UVA, RD 8 hours on day 1). The protocol: Platelets are able to regain their ability to change shape following transfer from the RD and incubation in a PL 2410 Plastic container (Baxter) in an equal volume of autologous plasma.
(§1) For the evaluation of in vitro platelet function, platelet samples were withdrawn from both the control and test units before treatment and after treatment on days 2, 5, and 7. The following parameters were analyzed: pH, pO2, pCO2, bicarbonate concentration, platelet count, morphology, aggregation, platelet shape change, hypotonic shock response, lactate production, glucose consumption, ATP secretion, p-selectin expression, and microvesicle formation. Several of these assays, including pH, morphology score, platelet shape change, and hypotonic shock response, have been reported in the literature to correlate with in- vivo post-transfusion recovery and survival. The Student's paired t-test was used for statistical analysis.

Series [4] concerns platelets. Nature of the series: Platelet aggregation (ADP and collagen, aggregometer). The conditions noted are these: for (%) Aggregation: T = test unit (150 µM S-59, 3 Joules/cm^2 UVA, RD 8 hours on day 1). Type of series: cell-based, human. The protocol:
To measure the effects of the present compounds and methods of decontamination on platelet function using these four indicators, four samples were prepared for each compound tested, two control samples and two containing compound. […] These were each transferred under sterile conditions to 50 ml centrifuge tubes, then aliquots of each unit were transferred into a second set of 50 ml sterile centrifuge tubes. […] The samples were pipetted gently up and down to mix. […] Samples were treated in one of two different sized bags, having either 3 ml or 8 ml capacity. […] For each compound tested, two control samples without compound were prepared by again removing aliquots of platelet concentrate (17 ml if using an 8 ml bag, 4 ml if using a 3 ml bag) from the same one of the first set of 50 ml centrifuge tubes from which the compound sample was drawn, and dividing into Medibags, as before. […] Then all experimental and control Medibags were placed on a platelet shaker for storage for 5 days.

Series [5] can be described thus: HPLC analysis of residual S-59 and photoproducts in PC after UVA and 8-hour treatment with RD containing Dowex XUS-43493. Type of series: physicochemical. The protocol: Briefly, the assay involved an initial sample preparation which lyses the platelets and solubilizes the S-59 and photoproducts. The supernatant from the sample preparation was then analyzed on a C-18 reverse phase column with a gradient of increasing methanol in KH2PO4 buffer. The major peaks were detected by optical absorbance. […] Samples of the treated PC were then taken and subjected to HPLC for detection of residual S-59 and S-59 photoproducts. Post-incubation levels of photoproducts D, E, and F (S-59) are presented in Table N; photoproducts A, B, C, and G were not detectable by HPLC. Levels of residual photoproducts are average values taken from six independent, photochemically- and RD-treated platelet units. […] The PC was assayed for unbound photoproducts using the HPLC assay discussed above, which quantifies the photoproducts present both within the platelets and in the plasma/PAS III mixture. […] In addition to assaying the complete PC, samples were centrifuged to remove the platelets so that unbound photoproducts in the plasma/PAS III could be analyzed separately. […] To evaluate the efficacy of the RD for reducing the concentration of S-59. platelet samples from the test unit were analyzed for S-59 content by HPLC. […] The concentration of S-59 before and after UVA illumination and the reduction in the concentration of residual S-59 following RD treatment were measured by HPLC analysis. […]

Series [6] relates to platelets. The experiment in a line: ATP content / ATP secretion of platelets. The series is classed as cell-based, human. As to conditions: T = test unit (150 µM S-59, 3 Joules/cm^2 UVA, RD 8 hours on day 1). The protocol:
Samples were removed from the units after 24 hours and were analyzed for platelet count and pH. After 5 days, samples were taken and also analyzed for platelet count and pH, as well as ATP content and activation by GMP-140. Controls included a sample of PCD-treated PC without adsorbent (no-adsorbent control) and a sample of PC that was not treated. The results for each of the platelet function assays are present in Table G (the "*" In Table G indicates a contact time of three hours only). TABLE G
as §1

The structures appear in SMILES notation. Marks after values point to notes of the source that are not given here.

For `Cc1oc2c(C)c3oc(=O)cc(C)c3cc2c1CN` [AMT, 4'-Aminomethyl-4,5',8-trimethylpsoralen, reference compound], in series [1], the “genotoxic (toxic) dose” value was 30 µg/mL.
`Cc1oc2c(C)c3oc(=O)cc(C)c3cc2c1COCCN` [Compound 2, 4'-(4-amino-2-oxa)butyl-4,5',8-trimethylpsoralen]: the “(%) p-Selectin-Positive” value in series [2] (Day 2) is 49±5 %; in series [2] (Day 5) it was 58±5%; in series [2] (Day 7) it was 60±7%. The “Platelet Shape Change” value in series [3] (Day 2) was determined as 1.0±0.1; in series [3] (Day 5) it was 0.9±0.1; in series [3] (Day 7), 0.9±0.3. In addition, the “reduction in aggregation from the day 1 control” value in series [4] (100 µM compound, 5 Joules/cm^2, 5 days storage (FIG. 21B)) is recorded as “approximately 8%”. Besides, the figures for the “(%) Aggregation” value in series [4] (Day 2), in series [4] (Day 5) and in series [4] (Day 7) were 88±4%, 81±7% and 81±4%, respectively. Also, the “% Residual S- 59” value in series [5] (Post 3 Joule/cm^2 UVA Illumination, of the initial S-59 remained unreacted) came to 20.5 ± 2.3%. For the same compound, the “µM S-59” value in series [5] (Pre-Treatment (0 Joule/cm^2), platelet concentrate, HPLC) was determined as 145 ± 10 µM. Further, the ATP in series [6] (Day 2) is reported as 1.0±0.1 Nmoles Per 10* Platelets; in series [6] (Day 5) it was 0.7±0.2 Nmoles Per 10* Platelets; in series [6] (Day 7), 0.6±0.2 Nmoles Per 10* Platelets.
